These results are taken from patent US6667313B1, “8-substituted-6-triflouromethyl-9-pyrido [3,2-G] quinoline compounds as androgen receptor modulators” (Ligand Pharmaceuticals Inc., priority 1999, dated 2003).

Where two headings read alike, the source gives them in different places.

For assay [1], the target named is T1, human AR (Homo sapiens, UniProt P10275).
T1 sequence (P10275 1-920): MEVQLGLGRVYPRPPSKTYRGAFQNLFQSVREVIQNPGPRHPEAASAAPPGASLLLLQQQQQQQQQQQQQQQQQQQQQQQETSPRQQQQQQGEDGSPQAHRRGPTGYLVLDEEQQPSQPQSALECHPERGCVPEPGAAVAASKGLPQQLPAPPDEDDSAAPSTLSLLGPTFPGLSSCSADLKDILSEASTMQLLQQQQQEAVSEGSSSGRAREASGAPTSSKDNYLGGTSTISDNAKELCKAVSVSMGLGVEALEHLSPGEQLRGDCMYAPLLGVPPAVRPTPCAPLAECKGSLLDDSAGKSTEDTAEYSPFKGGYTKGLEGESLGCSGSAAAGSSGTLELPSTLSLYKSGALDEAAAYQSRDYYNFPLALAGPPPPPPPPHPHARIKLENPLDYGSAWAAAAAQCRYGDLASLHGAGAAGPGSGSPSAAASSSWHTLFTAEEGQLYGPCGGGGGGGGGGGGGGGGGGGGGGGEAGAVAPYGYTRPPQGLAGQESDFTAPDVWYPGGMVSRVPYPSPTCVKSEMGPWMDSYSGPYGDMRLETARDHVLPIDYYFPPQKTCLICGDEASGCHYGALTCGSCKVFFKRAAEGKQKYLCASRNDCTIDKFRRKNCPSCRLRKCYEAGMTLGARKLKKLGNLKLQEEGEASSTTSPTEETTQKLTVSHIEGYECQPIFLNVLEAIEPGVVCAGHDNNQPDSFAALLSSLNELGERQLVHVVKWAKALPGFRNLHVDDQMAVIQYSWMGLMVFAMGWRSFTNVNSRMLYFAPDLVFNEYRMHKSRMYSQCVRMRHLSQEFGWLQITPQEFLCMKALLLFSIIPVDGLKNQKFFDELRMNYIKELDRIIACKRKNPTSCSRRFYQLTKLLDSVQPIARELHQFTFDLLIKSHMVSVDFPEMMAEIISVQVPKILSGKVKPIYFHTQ
In words: Co-transfection assay, AR antagonist, CV-1 cells (in presence of DHT). The format is cell-based. The note with it: for AR Antagonist CV-1 Cells Efficacy (%): percent maximal inhibition, DHT at EC50. An excerpt: (§1) The reporter plasmid, MTV-LUC, contains the cDNA for firefly luciferase (LUC) under control of themouse mammary tumor virus (MTV) long terminal repeat, a conditional promoter containing an androgen response element. See e.g., Berger et al. supra. In addition, pRS-β-Gal, coding for constitutive expression of E. coli β-galactosidase (β-Gal), was included as an internal control for evaluation of transfection efficiency and compound toxicity.
(§2) Three to four replicates were used for each sample.
(§3) After 40 hours, the cells were washed with PBS, lysed with a Triton X-100-based buffer and assayed for LUC and β-Gal activities using a luminometer or spectrophotometer, respectively. For each replicate, the normalized response (NR) was calculated as:
(§4) where β-Gal rate=β-Ga·1×10^−5/β-Gal incubation time.

The target in assay [2] is T1, human AR. In words: AR whole cell competitive binding assay (3H-DHT), COS-1 cells. Here is the method: AR Binding: For the whole cell binding assay, COS-1 cells in 96-well microtiter plates containing DMEM-10% FBS were transfected as described above with the following plasmid DNA: pRShAR (2 ng/well), pRS-β-Gal (50 ng/well) and pGEM (48 ng/well). Six hours after transfection, media was removed, the cells were washed with PBS and fresh media was added. The next day, the media was changed to DMEM-serum free to remove any endogenous ligand that might be complexed with the receptor in the cells.
Three replicates were used for each sample. […] The remaining media was removed, the cells were washed three times with PBS to remove unbound ligand, and cells were lysed with a Triton X-100-based buffer.
For the saturation analyses, the difference between the total binding and the nonspecific binding, normalized by the β-Gal rate, was defined as specific binding.
After correcting for non-specific binding, IC50 values were determined. […] The IC50 value was determined graphically from a log-logit plot of the data. The Ki values were determined by application of the Cheng-Prusoff equivuation to the IC50 values, the labeled ligand concentration and the Kd of the labeled ligand.

Assay [3] deals with T1, human AR. In words: Co-transfection assay, AR agonist, CV-1 cells. The note with it: for AR Agonist CV-1 Cells Efficacy (%): percent maximal response relative to reference agonist DHT. It is filed as cell-based.
Source text: as §1, §2, §3, §4

Regarding `CCC1CCNc2cc3nc(C(F)(F)F)cc(C(F)(F)F)c3cc21` (racemic) [Compound 149, (R/S)-4-Ethyl-1,2,3,4-tetrahydro-6,8-di(trifluoromethyl)-9-pyrido[3,2-g]quinoline], at human AR [1], the IC50 stood at 0.117 ± 0.031 µM. Moreover, on human AR [2], the affinity corresponds to a Ki of 0.301 µM.
Consider `CCC1CCNc2cc3nc(Br)cc(C(F)(F)F)c3cc21` (racemic) [Compound 121, (R/S)-8-Bromo-4-ethyl-1,2,3,4-tetrahydro-6-trifluoromethyl-9-pyrido[3,2-g]quinoline], for which, on human AR [3], the half-maximal effective concentration (EC50) (commonly the concentration giving half of the maximal effect) turned out to be 0.022 ± 0.014 µM and the “AR Agonist CV-1 Cells Efficacy (%)” value is 53 ± 15%. On human AR [1], the “AR Antagonist CV-1 Cells Efficacy (%)” value is reported as 8 ± 12%. Moreover, the Ki (in general, the dissociation constant of the complex between target and ligand, obtained from inhibition or displacement) on human AR [2] is 0.055 µM.
For `CCC1CCNc2cc3nccc(C(F)(F)F)c3cc21` (racemic) [Compound 125, (R/S)-4-Ethyl-1,2,3,4-tetrahydro-6-trifluoromethyl-9-pyrido[3,2-g]quinoline], at human AR [3], the “AR Agonist CV-1 Cells Efficacy (%)” value is 9 ± 7%. Moreover, on human AR [1], the IC50 came out at 0.056 ± 0.017 µM and the “AR Antagonist CV-1 Cells Efficacy (%)” value amounted to 93 ± 1%. Further, the affinity at human AR [2], expressed as Ki, was 0.093 µM.
Consider `CCC1CCNc2cc3nc([S+](C)[O-])cc(C(F)(F)F)c3cc21` (racemic) [Compound 143, (R/S)-4-Ethyl-1,2,3,4-tetrahydro-8-methylsulfinyl-6-trifluoromethyl-9-pyrido[3.2-g]guinoline], for which, on human AR [3], the EC50 amounted to 0.033 ± 0.003 µM and the “AR Agonist CV-1 Cells Efficacy (%)” value came to 37 ± 9%. At human AR [1], the IC50 came to 4.69 µM and the “AR Antagonist CV-1 Cells Efficacy (%)” value stood at 59%. Besides, on human AR [2], the Ki was 0.034 µM.
On to `CCC1CCN(C)c2cc3nc(C#N)cc(C(F)(F)F)c3cc21` (racemic) [Compound 130, (R/S)-8-Cyano-4-ethyl-1,2,3,4-tetrahydro-1-methyl-6-trifluoromethyl-9-pyrido[3,2-g]quinoline], for which, at human AR [3], the “AR Agonist CV-1 Cells Efficacy (%)” value was found to be 2%. In addition, on human AR [1], the IC50 is 0.782 ± 0.546 µM and the “AR Antagonist CV-1 Cells Efficacy (%)” value was 89 ± 1%. On human AR [2], this compound had a Ki of 0.787 µM.
`CCC1CCNc2cc3nc(SC)cc(C(F)(F)F)c3cc21` (racemic) [Compound 142, (R/S)-4-Ethyl-1,2,3,4-tetrahydro-8-methylthio-6-trifluoromethyl-9-pyrido[3,2-g]quinoline]: at human AR [3], the response was half-maximal at 0.221 ± 0.108 µM (EC50) and the “AR Agonist CV-1 Cells Efficacy (%)” value came to 30 ± 12%. On human AR [1], the IC50 was found to be 0.131 ± 0.064 µM and the “AR Antagonist CV-1 Cells Efficacy (%)” value turned out to be 60 ± 7%. This compound displayed a Ki on human AR [2] of 0.307 µM.
Consider `CC1(C)CCc2cc3c(cc2N1)N(C(=O)c1ccccc1)C(C#N)C=C3C(F)(F)F` (racemic) [Compound 131, (R/S)-9-Benzoyl-8-cyano-1,2,3,4,8,9-hexahydro-2,2-dimethyl-6-trifluoromethyl-9-pyrido[3,2-g]quinoline], for which the “AR Agonist CV-1 Cells Efficacy (%)” value at human AR [3] is given as 0%. At human AR [1], the IC50 came out at 0.063 µM and the “AR Antagonist CV-1 Cells Efficacy (%)” value came out at 91%. In addition, at human AR [2], the Ki is greater than 1 µM.
`CC1(C)CCc2cc3c(C(F)(F)F)c(F)c(Br)nc3cc2N1` [Compound 119, 8-Bromo-7-fluoro-1,2,3,4-tetrahydro-2,2-dimethyl-6-trifluoromethyl-9-pyrido[3,2-g]quinoline]: on human AR [3], the “AR Agonist CV-1 Cells Efficacy (%)” value stood at 6%. Also, at human AR [1], the IC50 is 0.047 ± 0.027 µM and the “AR Antagonist CV-1 Cells Efficacy (%)” value worked out at 73 ± 7%. Further, on human AR [2], the affinity corresponds to a Ki of 0.091 ± 0.068 µM.
As for `CC1(C)CCc2cc3c(C(F)(F)F)c(F)c(Cl)nc3cc2N1` [Compound 107, 8-Chloro-7-fluoro-1,2,3,4-tetrahydro-2,2-dimethyl-6-trifluoromethyl-9-pyrido[3,2-g]quinoline], on human AR [3], the concentration giving a half-maximal response (EC50) worked out at 1.03 µM and the “AR Agonist CV-1 Cells Efficacy (%)” value is 29%. Further, on human AR [1], the IC50 was found to be 0.017 ± 0.003 µM and the “AR Antagonist CV-1 Cells Efficacy (%)” value was found to be 61 ± 8%. At human AR [2], this compound came in with a Ki of 0.103 µM.
As for `Cc1c2c(cc3c(C(F)(F)F)c(F)c(Cl)nc13)C(C)CC(C)(C)N2` (stereo not drawn) [Compound 106, 8-Chloro-7-fluoro-1,2,3,4-tetrahydro-2,2,4,10-tetramethyl-6-trifluoro-methyl-9-pyrido[3,2-g]quinoline], on human AR [3], the “AR Agonist CV-1 Cells Efficacy (%)” value is 4 ± 2%. Further, on human AR [1], the IC50 turned out to be 0.55 ± 0.015 µM and the “AR Antagonist CV-1 Cells Efficacy (%)” value amounted to 77 ± 6%. The compound also came in with an inhibition constant Ki at human AR [2] greater than 1 µM.
Consider `CC1(C)CCc2cc3c(C(F)(F)F)c(F)cnc3cc2N1` [Compound 126, 7-Fluoro-1,2,3,4-tetrahydro-2,2-dimethyl-6-trifluoromethyl-9-pyrido[3,2-g]quinoline], for which the “AR Agonist CV-1 Cells Efficacy (%)” value at human AR [3] was 3 ± 5%. Further, on human AR [1], the IC50 was 0.181 ± 0.073 µM and the “AR Antagonist CV-1 Cells Efficacy (%)” value came out at 93 ± 4%. On human AR [2], this compound showed a Ki of 0.058 µM.
With `CCC1CCNc2cc3nc(Cl)c(F)c(C(F)(F)F)c3cc21` (racemic) [Compound 109, (R/S)-8-Chloro-4-ethyl-7-fluoro-1,2,3,4-tetrahydro-6-trifluoromethyl-9-pyrido[3,2-g]guinoline], on human AR [3], the EC50 amounted to 0.089 ± 0.026 µM and the “AR Agonist CV-1 Cells Efficacy (%)” value stood at 35 ± 12%. For the same compound, on human AR [1], the IC50 came to 0.039 ± 0.023 µM and the “AR Antagonist CV-1 Cells Efficacy (%)” value is reported as 51 ± 9%. The compound further yielded an inhibition constant (Ki) on human AR [2] of 0.119 ± 0.065 µM.
Take `CC1(C)CCc2cc3c(C(F)(F)F)c(F)c(F)nc3cc2N1` [Compound 113, 7,8-Difluoro-1,2,3,4-tetrahydro-2,2-dimethyl-6-trifluoromethyl-9-pyrido[3,2-g]quinoline]: the “AR Agonist CV-1 Cells Efficacy (%)” value on human AR [3] was 12%. Further, on human AR [1], the IC50 came out at 0.5 µM and the “AR Antagonist CV-1 Cells Efficacy (%)” value came out at 37%. The affinity on human AR [2], expressed as Ki, was 0.152 µM.
For `CCC1CCNc2cc3nc(Cl)cc(C(F)(F)F)c3cc21` (racemic) [Compound 108, (R/S)-8-Chloro-4-ethyl-1,2,3,4-tetrahydro-6-trifluoromethyl-9-pyrido[3,2-g]guinoline], at human AR [3], it took 0.073 ± 0.012 µM to reach a half-maximal effect (EC50) and the “AR Agonist CV-1 Cells Efficacy (%)” value is 36 ± 5%. Further, at human AR [1], the IC50 was 0.05 ± 0.027 µM and the “AR Antagonist CV-1 Cells Efficacy (%)” value was determined as 28 ± 8%. Further, on human AR [2], the Ki stood at 0.081 ± 0.013 µM.
Consider `CCC1CCNc2cc3nc(F)cc(C(F)(F)F)c3cc21` (racemic) [Compound 116, (R/S)-4-Ethyl-8-fluoro-1,2,3,4-tetrahydro-6-trifluoromethyl-9-pyrido[3,2-g]quinoline], for which, on human AR [3], a half-maximal effect (EC50) was put at 0.037 ± 0.009 µM and the “AR Agonist CV-1 Cells Efficacy (%)” value stood at 60 ± 4%. Also, at human AR [1], the “AR Antagonist CV-1 Cells Efficacy (%)” value is on record as 0%. In addition, the Ki at human AR [2] worked out at 0.005 µM.
`Cc1ccc(C(=O)N2c3cc4c(cc3C(C(F)(F)F)=CC2C#N)CCC(C)(C)N4)cc1` (racemic) [Compound 132, (R/S)-8-Cyano-1,2,3,4,8,9-hexahydro-2,2-dimethyl-9-p-toluoyl-6-trifluoromethyl-9-pyrido[3,2-g]quinoline]: the “AR Antagonist CV-1 Cells Efficacy (%)” value at human AR [1] is recorded as 89%. The IC50 at human AR [1] (read-out: AR Antagonist CV-1 Cells Potency) came to 0.147 µM. Further, the Ki at human AR [2] (COS-1 cells, 1 nM 3H-DHT, Cheng-Prusoff, read-out: AR Binding KI) was 0.863 µM.
For `CCC1CCNc2cc3nc(C#N)cc(C(F)(F)F)c3cc21` (racemic) [Compound 129, (R/S)-8-Cyano-4-ethyl-1,2,3,4-tetrahydro-6-trifluoromethyl-9-pyrido[3,2-g]quinoline], on human AR [1], the IC50 amounted to 0.015 ± 0.005 µM and the “AR Antagonist CV-1 Cells Efficacy (%)” value came out at 56 ± 25%. In addition, the affinity at human AR [2] corresponds to a Ki of 0.021 µM.
